Bridge positions count the residues as written; N and C are the ends. Ends that are not written are not given here. Peptide text beside a SMILES is read from it. I, II: the chains in the order shown. * marks the point of attachment. X1 = NC(=O)CC[C@H](NC(=O)[C@@H](N)CS*)C(=O)N[C@@H](CCC(=O)O)C(=O)O
How the values were obtained:
Caco-2 cell monolayers = assay: Transepithelial transport through Caco-2 monolayer; format: in vitro ADME; conditions: 21 days, TEER > 200 Ω/cm^2, gastric digest G60 added to apical chamber, AP to BL, 1 h, 37 °C, HBSS, content in basolateral chamber in comparison to apical chamber, UHPLC-HRMS, triplicates
Procedure: Caco-2 cells were obtained from Sigma-Aldrich and were grown Dulbecco’s modified minimum essential medium (DMEM), supplemented with 20% fetal bovine serum (FBS), […] L-glutamine, 100 U/mL penicillin and 100 μg/mL streptomycin at 37 °C in and 5% CO2. Cells were seeded onto Transwell inserts permeable membrane support (0.4 µm pore, 24 mm diameter, 4.7 cm^2 grown surface from Merck Co., Bedford, MA, USA) placed in six-well plates. The seeding density was 12,000 cell/cm^2. The medium was replaced every 2–3 days and cells were growing for 21 days. On the 21st day of the procedure, the integrity of the Caco-2 monolayer was assessed by the measurement of transepithelial electrical resistance (TEER) using a Millicell ERS-2 voltammeter (EMD Millipore, Darmstadt, Germany) selecting the ones with TEER values higher than 200 Ω/cm^2.
For the transport study, Caco-2 cells, maintained in DMEM, were gently rinsed with Hank’s balanced salt solution (HBSS) and equilibrated for 20 min at 37 °C prior to the transport study. Then, it was evaluated the transepithelial transport of the peptide […] (1 mM) dissolved in HBSS and the digests obtained in the in vitro simulated digestion (G60 and D60). […] or the peptide digests G60 and D60 were added to the apical (AP) chamber and were incubated for 1 h at 37 °C. After this time, triplicates of the AP chamber content and the basolateral (BL) chamber content were taken and stored at −80 °C until ultra-high performance liquid chromatography-high resolution mass spectrometry (UHPLC-HRMS) analyses.
(§1) Samples obtained from in vitro peptide simulated digestion and Caco-2 monolayers were diluted 10 times with water (0.1% FA) and centrifuged (15,000 rpm, 15 min, 4 °C). Supernatants were directly analyzed by UHPLC-HRMS to avoid the loss of polar peptide fragments. Extensive clean-up or pre-concentration procedures were not necessary due to the high concentration of peptide and low matrix complexity than plasma samples.
(§2) The obtained purified solutions from plasma and peptide digests G60 and D60 and from AP and BL chambers in Caco-2 experiment were analyzed using a UHPLC 1290 Infinity II Series coupled to a QqQ 6490 Series (Agilent Technologies, Santa Clara, CA, USA) for tandem mass experiments or a qTOF 6550 Series (Agilent Technologies) for high-resolution mass spectrometry experiments. Chromatographic separation of peptide or their fragments were performed using a Kinetex 2.6 µm EVO C18 column (150 × 2.1 mm, […]) from (Phenomenex, Torrance, USA) as stationary phase and water containing 0.1% formic acid (solvent A) and acetonitrile (solvent B) as mobile phase. The separation was performed in gradient elution as follows: isocratic; 0–0.5 min, 2 % B; 0.5–1 min, 2–6% B; 1–5 min, 6–15% B; 5–6 min, 15–35% B; 6–10 min, 35–98% B; 10–12 min, 98% B isocratic; 12–12.10, 98–2% B. For all runs, 10 μL of the sample (4 °C) was injected, and the flow rate was 0.350 mL/min and the column temperature was 25 °C.
(§3) For in vitro simulated digestion experiments and Caco-2 monolayer samples, qTOF instrument was used to investigate the presence of unknown peptide fragments and previously in silico predicted peptide fragments by means of its accurate mass. Peptide and its fragments were semi-quantified using the chromatographic peak area observed in the extracted ion chromatograms using a 20 ppm mass window.

porcine pepsin = target: T1, porcine pepsin (Sus scrofa, UniProt P00791); assay: In vitro simulated gastric digestion (G60); format: in vitro ADME; conditions: simulated gastric fluid 35 mM NaCl pH 2, porcine pepsin enzyme/substrate 1:20 w/w, 37 °C, 60 min; UHPLC-HRMS extracted ion chromatogram, 20 ppm window, semi-quantified; triplicate aliquots
T1 construct: purchased Sigma-Aldrich (Madrid, Spain)
T1 sequence (P00791 60-385): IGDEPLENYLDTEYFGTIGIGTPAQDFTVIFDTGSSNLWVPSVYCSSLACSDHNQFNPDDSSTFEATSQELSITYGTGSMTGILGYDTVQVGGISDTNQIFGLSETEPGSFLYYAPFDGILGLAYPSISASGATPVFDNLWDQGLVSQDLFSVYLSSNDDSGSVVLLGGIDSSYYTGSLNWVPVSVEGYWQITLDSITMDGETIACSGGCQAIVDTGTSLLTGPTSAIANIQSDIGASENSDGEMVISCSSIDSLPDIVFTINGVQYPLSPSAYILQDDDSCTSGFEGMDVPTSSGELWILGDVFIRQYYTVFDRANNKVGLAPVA
Procedure: For the in vitro simulated peptide GI digestion, a two-stage hydrolysis process was carried out according to Martos et al.. […] was dissolved in simulated gastric fluid (35 mM NaCl at pH 2 for 15 min) and posteriorly subjected to digestion by porcine pepsin (E.C. 3.4.23.1, 3440 units/mg) at an enzyme/substrate ratio of 1: 20 w/w at 37 °C for 60 min. Gastric digestion with pepsin was stopped by adding 1 M NaHCO3 and pH was adjusted to 7.0 with NaOH 1 M (final protein concentration of 5 mg/mL). Aliquots of this gastric digest were collected (G60) and stored at −20 °C until analysis. Duodenal digestions were performed by using, as the starting material, the obtained gastric digests, with the addition of 1 M CaCl2, 0.25 M bis-Tris pH 6.5, 0.25 M bis-Tris pH 6.5, and a 0.125 M bile salts mixture containing equimolar quantities of sodium taurocholate and glycodeoxycholic acid. Posteriorly, the duodenal enzymes trypsin (EC 232-650-8, 10100 BAEE units/mg protein), α-chymotrypsin (EC 232-671-2; 55 units/mg protein), porcine pancreatic lipase (EC 232-619-9) and colipase (EC 259-490-1), prepared in 35 mM NaCl adjusted to pH 7, were added to the solution. Duodenal digestion was carried out at pH 7, 37 °C during 60 (D60). Then, enzymes were inactivated by heating at 95 °C for 10 min in a water bath, followed by cooling to room temperature. Triplicates of aliquots at each time point were collected and stored at −20 °C until analysis.
as §1, §2, §3

[1] = peptides derived from Manchego cheese; ref Ruiz et al.; cited from earlier work
Procedure: Simulated in vitro gastrointestinal digestion model was used to investigate the releasing of the amino acid sequences previously predicted in the in silico approach. The peptide was sequentially digested under physiological conditions and the identification of amino acid sequences in samples obtained from both gastric and intestinal digestion were performed by UHPLC-HRMS (Table 2). When the results obtained by the in silico approach and in vitro approach were compared, it was observed that only two of the fourteen predicted peptide fragments from the in silico approach were identified in the i ...

Caco-2 monolayer = conditions: cited from earlier work
Procedure: To verify the lack of absorption of the peptide or their resultant fragments in the GI tract an additional study using Caco-2 cells was carried out. The native peptide […] and the samples collected after the simulated gastric and duodenal digestions (G60 and D60, respectively) were incubated in Caco-2 monolayer for 1 h. The peptide and its resultant fragments were identified in the AP chamber from G60 samples, however, only 0.10–0.25% were transported to the BL chamber (Table 3). Therefore, the presence of native […] in the AP chamber after 1 h of incubation and the absence of the ...

[2] = test system: spontaneously hypertensive rats; assay: Systolic blood pressure in SHR with or without Naloxone (tail-cuff); format: in vivo, rat; conditions: 50 mg/kg bw oral, Naloxone 3 mg/kg bw or saline, 6 h post-administration, n = 6
Procedure: Male, 17–20-week-old, SHR, weighing 286 ± 4 g were used in this study. All these animals were obtained from Charles River Laboratories Spain. The SHR were housed at a temperature of 23 °C with 12 h light/dark cycles and had free access to tap water and a standard diet (A04 Panlab). Before the experiments, rats were submitted to a training period of 10 days to guarantee the reliability of the measurements. To evaluate if […] presented an opioid-mediated effect, SHR received via subcutaneous 100 µL of Naloxone (3 mg/kg bw), and afterward a single oral dose (1 mL) of […] (10 mg/kg bw). Additionally, water, Captopril (50 mg/kg bw), known antihypertensive drug, and chicken foot hydrolysate Hpp11 (55 mg/kg bw), were administered as controls. Captopril and Hpp11 can inhibit ACE in vivo. […] Systolic blood pressure (SBP) was recorded in the rats by the tail-cuff method before and 2, 4, and 6 h post-administration. […]
Results from transepithelial transport studies are presented as means ± standard error means (SEM). […] The results for the experiments investigating the participation of opioid receptors in the […], Captopril and Hpp11 antihypertensive effect were expressed as the mean ± SEM of six animals per group (heterogeneity was tested by Levene’s test) and were analyzed by one-way ANOVA (Tukey’s test) using IBM SPSS Statistics 20.0 software. […]

opioid receptors = conditions: non-selective opioid receptor antagonist Naloxone; cited from earlier work
Description: However, some bioactive peptides might mediate their physiological effects through its binding to receptors present in the intestinal wall, implying that their absorption is not required. […] These opioid-like peptides are atypical opioid ligands that are released from the hydrolysis of food and present N-terminal sequences that are different fro ...

Row | Compound | G60 % Transport (Caco-2 cell monolayers) | Area G60 (chromatographic peak area) (porcine pepsin) | also measured
1 | CC(C)[C@H](NC(=O)[C@H](C)N)C(=O)N[C@@H](Cc1ccccc1)C(=O)N[C@@H](CCC(N)=O)C(=O)N[C@@H](Cc1c[nH]cn1)C(=O)N[C@@H](CC(N)=O)C(=O)N[C@@H](CSSC[C@H](NC(=O)[C@H](CC(N)=O)NC(=O)[C@H](Cc1c[nH]cn1)NC(=O)[C@H](CCC(N)=O)NC(=O)[C@H](Cc1ccccc1)NC(=O)[C@@H](NC(=O)[C@H](C)N)C(C)C)C(=O)N[C@@H](CCC(N)=O)C(=O)N[C@@H](CCC(=O)O)C(=O)O)C(=O)N[C@@H](CCC(N)=O)C(=O)N[C@@H](CCC(=O)O)C(=O)O (I: H-AVFQHNCQE-OH / II: H-AVFQHNCQE-OH; disulfide I:7-II:7) | 0.11% | 605,812 | 
2 | CC(C)[C@H](NC(=O)[C@H](C)N)C(=O)N[C@@H](Cc1ccccc1)C(=O)N[C@@H](CCC(N)=O)C(=O)N[C@@H](Cc1c[nH]cn1)C(=O)N[C@@H](CC(N)=O)C(=O)N[C@@H](CSSC[C@H](N)C(=O)N[C@@H](CCC(N)=O)C(=O)N[C@@H](CCC(=O)O)C(=O)O)C(=O)N[C@@H](CCC(N)=O)C(=O)N[C@@H](CCC(=O)O)C(=O)O (H-AVFQHNC(X1)QE-OH) | 0.15% | 93,694 | 
3 | CC(C)[C@H](NC(=O)[C@H](C)N)C(=O)N[C@@H](Cc1ccccc1)C(=O)N[C@@H](CCC(N)=O)C(=O)N[C@@H](Cc1c[nH]cn1)C(=O)N[C@@H](CC(N)=O)C(=O)N[C@@H](CSSC[C@H](NC(=O)[C@H](CC(N)=O)NC(=O)[C@H](Cc1c[nH]cn1)NC(=O)[C@@H](N)CCC(N)=O)C(=O)N[C@@H](CCC(N)=O)C(=O)N[C@@H](CCC(=O)O)C(=O)O)C(=O)N[C@@H](CCC(N)=O)C(=O)N[C@@H](CCC(=O)O)C(=O)O (I: H-AVFQHNCQE-OH / II: H-QHNCQE-OH; disulfide I:7-II:4) | 0.15% | 136,056 | 
4 | AVFQHNC [AVFQHNC] | 0.60% | 220,051 | 
5 | AVFQH [AVFQH] | 0.17% | 155,533 | 
6 | KKYNVPQL [peptide derived from Manchego cheese] |  |  | Resistance to GI digestion [1]: resistance to GI digestion
7 | QHNCQE [QHNCQE] |  | 288,536 | 
8 | CC(C)[C@H](NC(=O)[C@H](C)N)C(=O)N[C@@H](Cc1ccccc1)C(=O)O [AVF] (H-Ala-Val-Phe-OH) | 0.15% | 200,712 | 
9 | RADHP [antihypertensive peptide reported by Miguel et al] |  |  | Transport through Caco-2 monolayer (Caco-2 monolayer): lack of transported through Caco-2 monolayer
10 | C[C@H](CS)C(=O)N1CCC[C@H]1C(=O)O [Captopril] |  |  | BP reduction in naloxone-treated and saline-treated rats [2]: able to reduce BP in rats treated with Naloxone and in rats treated with saline
11 | VRYL [peptide derived from Manchego cheese] |  |  | Resistance to GI digestion [1]: resistance to GI digestion
12 | YGLF [α-lactorphin, milk-derived opioid-like antihypertensive peptide] |  |  | BP-lowering effect after administration of Naloxone (opioid receptors): abolished
13 | AVFQHN [AVFQHN] | 0.10% | 685,482 | 
